Data on one compound can be found in patent US11065194B2, “Cosmetic use of extracts of Salvia miltiorrhiza roots, special extracts of Salvia miltiorrhiza roots and cosmetic compositions containing such extracts” (SOCIETE INDUSTRIELLE LIMOUSINE D'APPLICATION BIOLOGIQUE, priority 2018, dated 2021).

For one assay, the system named is PGE2. The experiment in a line: Secretion of PGE2 by human keratinocytes treated with fine particles (PM), ELISA. The format is cell-based. The settings on record: tested at 0.5 μM. The procedure: The purpose of this study is to evaluate the capacity of an extract of Salvia miltiorrhiza roots to limit the secretion of prostaglandins E2 (PGE2) in the event of an inflammation caused by a pollutant (fine particles: PM).
This study was performed by ELISA assay on the culture supernatant of human keratinocytes subjected to a treatment with fine particles (PM) mimicking a polluted environment.
The operating protocol of the study is described below. • D0:
Normal human keratinocytes were seeded in a culture medium and incubated at 37° C. in an atmosphere containing 5% CO2. • D2: • Pre-treatment:
The keratinocytes were pretreated with or without the extract of Example 1 at 0.025% and 0.05% (V/V) or with capsazepine at 0.5 μM (inhibitor of TRPV1). The cells were then incubated for 30 minutes at 37° C. in an atmosphere containing 5% CO2. • Treatment with fine particles (PM):
The keratinocytes were treated with a solution of particles.
The cells were then incubated for 24 hours at 37° C. in an atmosphere containing 5% CO2. • D3, recovery of supernatants:
The culture supernatants were recovered and the PGE2s were assayed using an ELISA Kit (Enzo Life Sciences).
The test of Study II.2 on the secretion of PGE2 was performed on the extract and on Fraction A.

The target of assay [1] is T1, TRPV1 receptors of human sensory neurons (Homo sapiens, UniProt Q8NER1).
T1 construct: endogenous in cells; host or cells: human sensory neurons derived from hiPS cells, in co-culture with normal human keratinocytes
The experiment in a line: Inhibition of TRPV1 receptors of sensory neurons activated by capsaicin (cytoplasmic calcium, Fluo-4 probe). The conditions noted are these: tested at 10 μM. The format is cell-based. On the procedure:
The aim of this study is to evaluate the capacity of an extract of Salvia miltiorrhiza roots to inhibit the activity of TRPV1 (Transient receptor potential vanilloid 1) receptors of human sensory neurons that play a major role in the detection and transmission of sensations of pain and itching to the central nervous system.
This study was performed on a model of human sensory neurons derived from hiPS cells (human-induced Pluripotent Stem Cells) in co-culture with human keratinocytes. The activation of TRPV1 receptors is characterized by a massive entry of calcium into the cytoplasm of the sensory neurons that can be captured by a fluorescent probe and analyzed by epifluorescence microscopy.
The operating protocol is described below: • D0, culture of sensory neurons derived from hiPS cells: • The hiPS (human-induced Pluripotent Stem) cells are seeded in a culture medium and incubated at 37° C. • D14, placed in co-culture with normal human keratinocytes: • Some human keratinocytes are seeded onto the carpet of sensory neurons. […] This entry of calcium is captured by the Fluo-4 probe, causing an increase in the level of fluorescence in the neurons. The greater the increase in the level of fluorescence, the more the TRPV1 receptors are activated.
The average of the increase in the level of fluorescence was compared in percentage terms to the non-activated control condition.

The test system of another assay is COX-2. The experiment in a line: Synthesis of COX-2 on SILABSKIN REs treated with fine particles (PM), immunohistochemistry. The conditions noted are these: tested at 1 μM. The format is cell-based, human. An excerpt: The purpose of this study is to evaluate the capacity of an extract of Salvia miltiorrhiza roots to limit the synthesis of cyclo-oxygenase 2 (COX-2) in the event of an inflammation caused by a pollutant (fine particles: PM).
The expression of COX-2 has been evaluated by immunohistochemistry on SILABSKIN® REs subjected to repeated treatments with fine particles (PM) in order to mimic a polluted environment.
Human keratinocytes were cultivated in a specific culture medium • D0: • Normal human keratinocytes were seeded on inserts then incubated at 37° C. in an atmosphere containing 5% CO2. • D2 to D13: • The culture medium was changed every 2 days. • D14 and D15, treatments of SILABSKIN® REs: • SILABSKIN® REs were treated topically with a solution of fine particles (PM), with or without the presence of the extract of Example 1 at 0.25% (V/V), or with capsazepine at […]. • D16: • The SILABSKIN® REs were recovered, fixed, dehydrated and embedded in paraffin. Sections (4 μm) were then cut using a microtome (RM2125RT, Leica).
B. Analysis of the Expression of COX-2 by Immunohistochemical Marking • Removal of paraffin with xylene • Unmasking the antigenic sites • Saturation • Primary antibody: rabbit monoclonal anti-COX-2 antibody • Secondary antibody: coupled Alexa Fluor® 488 […] antibody
The expression of COX-2 was proportional to the intensity of the green fluorescence present on the SILABSKIN® REs. A quantitative analysis of the images was performed with the aid of Matlab® version R2012b (MathWorks) software. The results were expressed in arbitrary units (UA).

Marks after values point to notes of the source that are not given here.

T1 sequence (Q8NER1 whole entry): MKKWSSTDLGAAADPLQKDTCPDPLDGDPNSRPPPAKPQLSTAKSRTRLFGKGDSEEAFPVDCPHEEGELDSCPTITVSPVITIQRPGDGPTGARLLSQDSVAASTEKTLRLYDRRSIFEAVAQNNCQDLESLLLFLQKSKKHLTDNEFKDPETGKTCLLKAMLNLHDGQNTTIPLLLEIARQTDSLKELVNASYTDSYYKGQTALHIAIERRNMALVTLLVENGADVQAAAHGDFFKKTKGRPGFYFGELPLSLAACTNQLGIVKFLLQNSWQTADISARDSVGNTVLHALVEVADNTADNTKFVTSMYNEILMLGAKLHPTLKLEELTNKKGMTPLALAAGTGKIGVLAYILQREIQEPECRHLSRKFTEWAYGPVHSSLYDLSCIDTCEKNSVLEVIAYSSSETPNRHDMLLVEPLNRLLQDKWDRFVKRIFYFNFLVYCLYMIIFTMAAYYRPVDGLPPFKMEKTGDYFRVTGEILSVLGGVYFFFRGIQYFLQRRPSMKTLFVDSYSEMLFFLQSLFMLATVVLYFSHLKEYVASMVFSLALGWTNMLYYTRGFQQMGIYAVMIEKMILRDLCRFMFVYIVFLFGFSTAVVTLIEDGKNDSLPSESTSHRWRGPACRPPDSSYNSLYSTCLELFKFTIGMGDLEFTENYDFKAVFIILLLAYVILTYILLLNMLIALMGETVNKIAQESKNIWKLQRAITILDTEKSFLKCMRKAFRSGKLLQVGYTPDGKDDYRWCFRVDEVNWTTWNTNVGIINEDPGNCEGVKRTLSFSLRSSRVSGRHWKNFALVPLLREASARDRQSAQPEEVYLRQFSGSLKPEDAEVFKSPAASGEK

In the case of `Oc1cc2c(cc1O)CN(C(=S)NCCc1ccc(Cl)cc1)CCC2` [Capsazepine, capsazepine], the inhibition at 0.5 µM in the assay on PGE2 (Homo sapiens, Keratinocyte, read-out: Inhibition of the PM-caused increase in secretion of PGE2) worked out at 78%. Further, in the assay with PGE2, the “PGE2 Content/PM-treated control” value is listed as −78%. Also, in the assay with PGE2 (keratinocytes treated with PMs), the “PGE2 Content” value is reported as 433* pg/mg of proteins. Besides, in assay [1] (capsaicin 10 μM, read-out: Inhibition of TRPV1 receptors/activated control neurons), the inhibition at 10 µM stood at 199%. Besides, in assay [1] (neurons activated by capsaicin 10 μM, non-activated control = 100), the “Mobilization of cytoplasmic calcium” value is on record as 131*** %. In addition, in the assay with COX-2, the “Inhibition of the PM-caused increase in expression of COX-2” value is given as 38% and the “Synthesis of COX-2/polluted control” value was −38%. For the same compound, the “Synthesis of COX-2” value in the assay with COX-2 (polluted SILABSKIN REs (PM)) is reported as 659* ×10^3 UA.
